Laboratory results from publication PMC9029746, “Discovery of Azaindolin-2-One as a Dual Inhibitor of GSK3β and Tau Aggregation with Potential Neuroprotective Activity” (Pharmaceuticals, 2022).
Entries after “also recorded” stand apart in the source; their conditions may differ. Like-named read-outs stand apart in the source and are kept apart here. Values belong to the compound of their own block, whether it stands above or below them.

Experiments:
human recombinant GSK3β = biological target: T1, human recombinant GSK3β (Homo sapiens, UniProt P49841); experiment: GSK3β inhibition assay (GSK3β Kinase Enzyme System, ADP-Glo Kinase Assay); type: biochemical; conditions: for inhibition at 10 µM: read-out: percentage inhibition of GSK3β
T1 construct: purchased Promega Corporation, Madison, WI, USA (GSK3β Kinase Enzyme System)
Method: Screening of GSK3β inhibition activity for our new library was conducted using the […] luminescence assay to determine how much ATP is reduced after a kinase reaction.
According to the manufacturer’s protocol, the assay was conducted using GSK3β Kinase Enzyme System and ADP-Glo Kinase Assay (Promega Corporation, Madison, WI, USA) in 384-well plates. The kinase reaction was performed at room temperature using 2 ng/μL of human recombinant GSK3β, 0.2 μg/μL of GSK3 substrate ([…] (pS) EDEEE; amino acids 636–661), and 25 μM ATP in 4X kinase buffer containing 50 μM DTT. The compounds were added to enzyme solution and incubated for 2 h at room temperature. Then, kinase activity was quantified using the ADP-Glo Kinase Assay as previously described.

[1] = biological target: T2, tau 2N4R isoform carrying P301L mutation (Homo sapiens, UniProt P10636, P618L); experiment: Tau aggregation inhibition in a cell model of tauopathy (Tau Aggregation Assay Kit, HeLa cells); type: cell-based; conditions: for anti-tau aggregation effect: Hela cells, seed+; for inhibitory activity against tau aggregation: 1, 3, 10, and 30 µM overall
T2 construct: host or cells: HeLa cells
Method: Aggregation of Tau is observed using Hela cells transduced with the expression vector of tau 2N4R isoform carrying P301L mutation and fibrils of tau protein with P301L mutation as seed. We tested the anti-aggregation effects of (E)-2f and 3a at four different concentrations, namely (1 µM, 3 µM, 10 µM, 30 µM), the measurements combined with negative seed (negative control = normal aggregation level), and positive seed (positive control = AD aggregation levels). In other words, seed— and + indicate the absence and presence of fibrils of tau protein with P301L mutation as seed, respectively.
Figure 9 Anti-tau aggregation activity of compounds (E)-2f and 3a at 1, 3, 10, and 30 µM concentrations. (A) Tau proteins were stained with green fluorescence in HeLa cells transfected with the expression vector of tau 2N4R isoform carrying P301L mutation and incubated with the compounds. Microscopic observation was performed, and photos were shown on a 100 µm scale. Seed negative (seed−) and seed positive (seed+) indicate the absence and presence of fibrils of tau protein with P301L mutation, respectively. (B) Relative green spots per area (%) after exposure of Hela cells to compounds (E)-2f and 3a are compared to seed positive (seed+ = 100%). ImageJ counted more than 100 spots in the same area in each sample. *: denotes significant difference from control (seed+) at p < 0.05, **: denotes significant difference from control (seed+) at p < 0.01.
According to the manufacturer’s protocol, the assay was performed using Tau Aggregation Assay Kit (Cosmo Bio, Tokyo, Japan [catalog number: TAU01]). Briefly, HeLa cells were transfected with pCMV-Tau(2N4R)-P301L (20 ng) using Lipofectamine 3000 (ThermoFisher Scientific, Waltham, MA, USA) and treated with F-Tau (RD)-P301L (fibrils of tau protein with P301L mutation as seed, included in the assay kit). Drugs were added after 6 h, and the cells were incubated for 1 day. Next, immunostaining was performed basically as previously described. Tau proteins were stained with green fluorescence. In this staining, a TAU antibody (Proteintech, Rosemont, IL, USA [catalog number: 10274-1-AP]) was used as the first antibody, and goat anti-rabbit IgG (H + L) highly cross-adsorbed secondary antibody, Alexa Fluor 488 ThermoFisher Scientific) was used as the second antibody. An All-in-One Fluorescence Microscope BIOREVO BZ-9000 (Keyence, Osaka, Japan) was used as the microscope. ImageJ counted more than 100 spots in the same area in each sample [40, 41].

total tau = experiment: Western blot analysis of total tau in Hela cells; type: cell-based, human; conditions: 10 and 30 µM, 24 h, GAPDH normalization
Method: Western blot analysis was then used to confirm the amount of the total tau in Hela cells used for microscopic observation. The lysate of Hela cells, after incubation with compounds (E)-2f and 3a at 10 and 30 µM concentrations, were analyzed by immunoblotting using the same anti-Tau antibody (Figure S42). ImageJ was used to quantify the total tau at each concentration and compared to the total tau level of Hela cells with positive seed (seed+) alone as a control.
Figure 10 Effect of compounds (E)-2f and 3a on Tau levels. HeLa cells transfected with the expression vector of tau 2N4R isoform carrying P301L mutation and incubated with compounds (E)-2f and 3a at 10 and 30 µM concentrations for 24 h. Then Hela cells were lysed, and the lysates were analyzed by Western blotting. The relative amount of total tau expressed in the total cell lysate of Hela cells of each lane was quantified by ImageJ. The total tau level of Hela cells with positive seed (seed+) alone was calculated from total tau after GAPDH normalization and is presented as Control (1.00).
Western blot analysis was performed by lysing Hela cells in PBS/Laemmli sample buffer (1:1) as described previously. […] Chemiluminescence detected immunoreactivity using ImmunoStar LD (FUJIFILM-Wako, Osaka, Japan).

A375 = experiment: MTT assay, cytotoxicity; type: cell-based; conditions: Homo sapiens, A-375, 72 h; read-out: IC50 (µM) after 72 h Drug Treatment, A375
Method: (§1) The human cervical carcinoma cell line HeLa, obtained from the American Type Culture Collection (ATCC), was cultured in Dulbecco’s modified Eagle’s medium (DMEM) supplemented with 5% heat-inactivated fetal bovine serum (FBS). The human glioblastoma cell line U251 (obtained from ATCC), colon carcinoma cell line HCT116 [provided by the RIKEN BRC through the National Bio-Resource Project of the MEXT/AMED, Japan (RCB2979)], and human melanoma cell line A375, obtained from ATCC, were cultured in DMEM supplemented with 10% heat-inactivated FBS. The human chronic myelogenous leukemia cell line K562 and human peripheral blood mononuclear cells (PBMC), both cells obtained from ATCC, were cultured in RPMI 1640 supplemented with 10% heat-inactivated FBS described previously.
(§2) Cells were seeded in a 24-well plate, and the compounds were added. After incubation for 3 days, a solution (1.1 mg/mL) of 3-(4,5-dimethylthiazol-2-yl)-2,5-diphenyl-2H-tetrazolium bromide (MTT, from DOJINDO Laboratories, Kumamoto, Japan) was added, and MTT assay was performed as previously described.

HCT-116 = experiment: MTT assay, cytotoxicity; type: cell-based; conditions: Homo sapiens, HCT-116, 72 h; read-out: IC50 (µM) after 72 h Drug Treatment, HCT-116
Method: as §1, §2

K562 = experiment: MTT assay, cytotoxicity; type: cell-based; conditions: Homo sapiens, K562, 72 h; read-out: IC50 (µM) after 72 h Drug Treatment, K562
Method: as §1, §2

U251 = experiment: MTT assay, cytotoxicity; type: cell-based; conditions: Homo sapiens, U-251, 72 h; read-out: IC50 (µM) after 72 h Drug Treatment, U251
Method: as §1, §2

PBMC = experiment: MTT assay, cytotoxicity on normal blood cells; type: cell-based; conditions: Homo sapiens, 72 h, read-out: IC50 (µM) after 72 h Drug Treatment, PBMC
Method: as §1, §2

tau fibrils = biological target: tau fibrils; parameters: method as in PMID 17761424; conditions: cited from earlier work
alpha-synuclein (α-syn) = biological target: alpha-synuclein (α-syn); parameters: method as in PMID 17761424; conditions: cited from earlier work
beta-amyloid (Aβ) = biological target: beta-amyloid (Aβ); parameters: method as in PMID 17761424; conditions: cited from earlier work
GSK3β = conditions: cited from earlier work

T1 sequence (P49841 whole entry): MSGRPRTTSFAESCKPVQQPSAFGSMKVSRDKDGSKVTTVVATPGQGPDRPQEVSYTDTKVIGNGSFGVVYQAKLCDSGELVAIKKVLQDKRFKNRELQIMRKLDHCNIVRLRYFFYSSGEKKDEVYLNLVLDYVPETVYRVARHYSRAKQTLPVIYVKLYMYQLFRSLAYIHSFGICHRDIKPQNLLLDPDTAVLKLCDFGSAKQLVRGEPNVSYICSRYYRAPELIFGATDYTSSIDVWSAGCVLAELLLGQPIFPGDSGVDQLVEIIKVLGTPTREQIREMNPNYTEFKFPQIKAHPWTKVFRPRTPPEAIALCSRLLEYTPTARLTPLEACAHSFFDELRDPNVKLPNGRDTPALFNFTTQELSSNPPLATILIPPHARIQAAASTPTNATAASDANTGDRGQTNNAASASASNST
T2 sequence (P10636 1-441 isoform P10636-8 P301L): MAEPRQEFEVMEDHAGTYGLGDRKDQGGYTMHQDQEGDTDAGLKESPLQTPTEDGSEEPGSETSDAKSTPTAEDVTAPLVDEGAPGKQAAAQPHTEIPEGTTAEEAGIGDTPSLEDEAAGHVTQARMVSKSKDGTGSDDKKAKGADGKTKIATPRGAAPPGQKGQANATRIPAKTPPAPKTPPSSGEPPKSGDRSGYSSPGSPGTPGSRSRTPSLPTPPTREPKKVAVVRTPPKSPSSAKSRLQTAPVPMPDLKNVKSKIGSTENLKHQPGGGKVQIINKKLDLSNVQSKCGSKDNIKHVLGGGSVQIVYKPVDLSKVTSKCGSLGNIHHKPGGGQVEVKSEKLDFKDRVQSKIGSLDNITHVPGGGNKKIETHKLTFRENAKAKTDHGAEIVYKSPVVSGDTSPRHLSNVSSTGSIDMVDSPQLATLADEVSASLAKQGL

Structure (SMILES): CCN(CC)c1ccc(/C=C2\C(=O)Nc3ncccc32)cc1 [(Z)-3b]
IC50 (human recombinant GSK3β; read-out: IC50 (µM) GSK3β): 3 µM

Structure (SMILES): CN(C)c1ccc(/C=C2/C(=O)Nc3ccccc32)cc1 [VII]
Ki (tau fibrils): 95 nM
Ki (alpha-synuclein (α-syn)): 490 nM
Ki (beta-amyloid (Aβ)): 140 nM

Structure (SMILES): COc1ccc2c(c1)c(/C=C1\SC(=O)NC1=O)cn2C [IV]
IC50 (GSK3β): 0.89 µM

Structure (SMILES): Cn1cc(-c2[nH][nH]c(=O)c2-c2cn(C)c3ccccc23)c2ccccc21 [III]
IC50 (GSK3β; in vitro): 0.034 µM

Structure (SMILES): O=C1Nc2ccccc2/C1=C\c1ccccn1 [(E)-2a, (E)-3-(pyridin-2-ylmethylene)indolin-2-one]
IC50 (human recombinant GSK3β): > 10 µM
IC50 (GSK3β): 0.00416 µM

Structure (SMILES): CN(C)c1ccc(C=C2C(=O)Nc3ncccc32)cc1 (mixture of isomers) [Compound 3a, (E/Z)-3-(4-(dimethylamino)benzylidene)-1,3-dihydro-2H-pyrrolo [2,3-b]pyridin-2-one]
anti-tau aggregation effect ([1]; 30 µM): completely protected Hela cells from tau aggregates
inhibitory activity against tau aggregation [1]: concentration-dependent inhibitory activity
total tau level compared to Hela cells with seed+ alone (total tau): little or no difference; also recorded: minimal effect
IC50 (A375): > 100 µM
IC50 (HCT-116): 9.8 µM
IC50 (K562): 4.7 µM
IC50 (U251): 10.3 µM
IC50 (PBMC): 94.5 µM

Structure (SMILES): CCN(CC)c1ccc(/C=C2/C(=O)Nc3ncccc32)cc1 [(E)-3b]
IC50 (human recombinant GSK3β; read-out: IC50 (µM) GSK3β): 3 µM

Structure (SMILES): O=C1NC(=S)S/C1=C\c1cccc(-c2ccc3c(c2)OCO3)n1 [V]
IC50 (GSK3β): 1.6 µM

Structure (SMILES): Clc1cc(-c2c[nH]c3ncccc23)cc(NC2CCCCC2)n1 [Native ligand]
Ki (GSK3β): 0.058 µM

Further lines, with some results ahead:

inhibition at 10 µM (human recombinant GSK3β): < 30%
IC50 (human recombinant GSK3β; read-out: IC50 (µM) GSK3β): > 10 µM
Structure (SMILES): O=C1Nc2cc(F)ccc2/C1=C\c1ccccn1 [(E)-2e, (E)-6-fluoro-3-(pyridin-2-ylmethylene)indolin-2-one]

IC50 (human recombinant GSK3β; read-out: IC50 (µM) GSK3β): 5.9 µM
Structure (SMILES): O=C1Nc2ncccc2/C1=C/c1ccncc1 [(Z)-3d]

IC50 (human recombinant GSK3β; read-out: IC50 (µM) GSK3β): 3.2 µM
Structure (SMILES): CN(C)c1ccnc(/C=C2/C(=O)Nc3ncccc32)c1 [(E)-3c]

inhibition at 10 µM (human recombinant GSK3β): 76.4%
IC50 (human recombinant GSK3β; read-out: IC50 (µM) GSK3β): 1.7 µM
anti-tau aggregation effect ([1]; 1 µM): no efficacy
anti-tau aggregation effect ([1]; 3 µM): moderate efficacy
anti-tau aggregation effect ([1]; 10 µM): significant anti-aggregation effect
Structure (SMILES): O=C1Nc2ncccc2/C1=C\c1ccccn1 [(E)-2f, (E)-3-(pyridin-2-ylmethylene)-1,3-dihydro-2H-pyrrolo [2,3-b]pyridin-2-one]
anti-tau aggregation effect ([1]; 30 µM): completely protected Hela cells from tau aggregates
inhibitory activity against tau aggregation [1]: pronounced tau anti-aggregation effect; also recorded: concentration-dependent inhibitory activity
total tau level compared to Hela cells with seed+ alone (total tau): little or no difference; also recorded: minimal effect
IC50 (A375): 14 µM
IC50 (HCT-116): 12.8 µM
IC50 (K562): 13.8 µM
IC50 (U251): 28.2 µM
IC50 (PBMC): > 300 µM

inhibition at 10 µM (human recombinant GSK3β): < 30%
IC50 (human recombinant GSK3β; read-out: IC50 (µM) GSK3β): > 10 µM
Structure (SMILES): O=C1Nc2ccc(F)cc2/C1=C\c1ccccn1 [(E)-2d, (E)-5-fluoro-3-(pyridin-2-ylmethylene)indolin-2-one]

inhibition at 10 µM (human recombinant GSK3β): 45%
IC50 (human recombinant GSK3β; read-out: IC50 (µM) GSK3β): > 10 µM
Structure (SMILES): O=C1Nc2cc(Cl)ccc2/C1=C\c1ccccn1 [(E)-2c, (E)-6-chloro-3-(pyridin-2-ylmethylene)indolin-2-one]

IC50 (human recombinant GSK3β; read-out: IC50 (µM) GSK3β): 1.9 µM
Structure (SMILES): CN(C)c1ccc(/C=C2\C(=O)Nc3ncccc32)cc1 [(Z)-3a]

IC50 (human recombinant GSK3β; read-out: IC50 (µM) GSK3β): > 10 µM
Structure (SMILES): O=C1Nc2ccc(Cl)cc2/C1=C\c1ccccn1 [(E)-2b, (E)-5-chloro-3-(pyridin-2-ylmethylene)indolin-2-one]

IC50 (human recombinant GSK3β; read-out: IC50 (µM) GSK3β): 5.9 µM
Structure (SMILES): O=C1Nc2ncccc2/C1=C\c1ccncc1 [(E)-3d]
